According to BindingDB's records for doi:10.1021/jm00032a003 (Merck Research Laboratories, 1994):
pIC50: −log10 of the molar value.

Assay: The compound was tested for binding activity against Cholecystokinin type B receptor from rat […] tissue using [125]BH CCK-8 as radioligand

SMILES	pIC50
CN1C(=O)[C@H](NC(=O)Nc2ccc(C(=O)O)cc2)N=C(c2ccccc2)c2ccccc21	8.17
CC(C)CN1C(=O)[C@H](NC(=O)Nc2ccc(-c3nnn[nH]3)cc2)N=C(c2ccccc2)c2ccccc21 [1-((R)-1-Isobutyl-2-oxo-5-phenyl-2,3-dihydro-1H-benzo[e][1,4]diazepin-3-yl)-3-[4-(1H-tetrazol-5-yl)-phenyl]-urea]	7.62
CN1C(=O)[C@H](NC(=O)Nc2ccc(-c3nnn[nH]3)cc2)N=C(c2ccccc2)c2ccccc21 [1-((R)-1-Methyl-2-oxo-5-phenyl-2,3-dihydro-1H-benzo[e][1,4]diazepin-3-yl)-3-[4-(1H-tetrazol-5-yl)-phenyl]-urea]	6.60
CN1C(=O)[C@H](NC(=O)Nc2ccc(-c3nc(=O)o[nH]3)cc2)N=C(c2ccccc2)c2ccccc21 [1-((R)-1-Methyl-2-oxo-5-phenyl-2,3-dihydro-1H-benzo[e][1,4]diazepin-3-yl)-3-[4-(5-oxo-4,5-dihydro-[1,2,4]oxadiazol-3-yl)-phenyl]-urea]	7.25
CC(C)CN1C(=O)[C@@H](NC(=O)Nc2ccc(-c3nnn[nH]3)cc2)N=C(c2ccccc2)c2ccccc21 [1-((S)-1-Isobutyl-2-oxo-5-phenyl-2,3-dihydro-1H-benzo[e][1,4]diazepin-3-yl)-3-[4-(1H-tetrazol-5-yl)-phenyl]-urea]	9.85
CN1C(=O)[C@@H](NC(=O)Nc2ccc(-c3nnn[nH]3)cc2)N=C(c2ccccc2)c2ccccc21 [1-((S)-1-Methyl-2-oxo-5-phenyl-2,3-dihydro-1H-benzo[e][1,4]diazepin-3-yl)-3-[4-(1H-tetrazol-5-yl)-phenyl]-urea]	8.99
CN1C(=O)[C@@H](NC(=O)Nc2ccc(-c3nc(=O)o[nH]3)cc2)N=C(c2ccccc2)c2ccccc21 [1-((S)-1-Methyl-2-oxo-5-phenyl-2,3-dihydro-1H-benzo[e][1,4]diazepin-3-yl)-3-[4-(5-oxo-4,5-dihydro-[1,2,4]oxadiazol-3-yl)-phenyl]-urea]	9.58
